Tested on: KRAS-mutant PDC multicell tumor spheroid viability
Assay: Anticancer human tumor 521955-158-R2-J5-PDC patient-derived pancreatic carcinoma cell line growth inhibition [KRAS2]
Settings: for IC50: curve of first compound; for viability, T/C: stronger effect = lower value
Excerpt: Multicellular complex tumor spheroid response to RAS pathway inhibitors in combination with a targeted agents in patient-derived cell lines with oncogenic KRAS variants from multiple cancer types
A high-throughput screen of multi-cell type tumor spheroids was designed to identify active combinations of targeted small molecules and KRAS pathway inhibitors. Complex spheroids include a stromal component modeled by human endothelial cells (HUVEC) and fibroblasts modeled by human mesenchymal stem cells (MSCs). The concentration ranges selected for each drug and investigational agent were based upon clinically achievable concentrations if the clinical Cmax of the agent was known.
Compounds. The drugs and investigational agents: BI-3406 (NSC825286), BAY-293 (NSC824723), batoprotafib (TNO155; NSC825523), sotorasib (AMG 510; NSC818433), MRTX1257 (NSC819558), elimusertib (BAY 1895344; NSC800525), molibresib (GSK525762; NSC774829), temuterkib (LY3214996; NSC803410), venetoclax (NSC766270), alisertib (NSC759677), olaparib (NSC753686), talazoparib (NSC767125), erdafitinib (NSC781556), ipatasertib (NSC767898), cabozantinib (NSC761068), nintedanib (NSC756659), abemaciclib (NSC768073), docetaxel (NSC628503), trametinib (NSC758246), and sapanisertib (NSC764658) were obtained from the National Cancer Institute (NCI) Developmental Therapeutics Program Chemical Repository. The FDA-approved anticancer drug set is available from the Developmental Therapeutics Program. […] The stock solutions were prepared in dimethyl sulfoxide (DMSO, Sigma-Aldrich, St. Louis, MO, cat. D2650) at 800-fold the tested concentration and stored at -70 degrees C prior to their use. All drugs and investigational agents were tested over a range starting from a high concentration at or near the clinical Cmax and decreasing in half-log increments. If the clinical Cmax for an agent had not been determined, the highest concentration tested was 10 microM.
Cell Culture. All cells were maintained in an incubator at 37 degrees C and 5% CO2 with 95% humidity. The PDC lines were cultured according to standard operating procedures established by the NCI PDMR (https://pdmr.cancer.gov/sops/default.htm). Briefly, all PDCs were thawed and cultured in Matrigel-coated flasks prepared with a working solution of 1X Ham's F-12 nutrient mix, without supplementation (Invitrogen, Waltham, MA, cat. 11765054), 100 U/mL penicillin-streptomycin (Invitrogen, cat. 15140122), and 2.5% Matrigel (Corning Inc., Corning, NY, cat. 354248) for the first three passages. All PDCs were cultured in complete DMEM/F-12 media containing advanced DMEM/F-12 (Invitrogen, cat. 12634028), 4.9% defined fetal bovine serum, heat inactivated (HyClone Laboratories Inc., Logan, UT, cat. SH30070.03HI), 389 ng/mL hydrocortisone (Sigma-Aldrich, cat. H4001), 9.7 ng/mL human EGF recombinant protein (Invitrogen, cat. PHG0313), 23.4 microg/mL adenine (Sigma-Aldrich, cat. A2786), 97.3 U/mL penicillin-streptomycin (Invitrogen, cat. 15140122), 1.9 mM L-glutamine (Invitrogen, cat. 25030081), and 9.7 microM Y-27632 dihydrochloride (Tocris Bioscience, Bristol, United Kingdom, cat. 1254). The PDCs were cultured in complete DMEM/F12 media without 9.7 microM Y-27632 dihydrochloride for at least two passages prior to the screen. The established cell line HOP-62 was cultured in RPMI 1640 medium, HEPES (Invitrogen, cat. 22400105) with 10% defined fetal bovine serum (HyClone Laboratories Inc., cat. SH30070.03) and 2 mM L-glutamine (Invitrogen, cat. 25030081). The pooled donor HUVEC were cultured in endothelial cell growth medium 2 (PromoCell, Heidelberg, Germany, cat. C-22011) and the hMSC were cultured in mesenchymal stem cell growth medium 2 (PromoCell, cat. C-28009). For all experiments, HUVEC and hMSC were used at passages </=5, while the malignant cell lines were used at passages </=15. […]

[1] = second compound 0.1 µM, first compound 0.0316 µM
[2] = second compound 0.1 µM, first compound 0.1 µM
[3] = second compound 0.316 µM, first compound 0.0316 µM
[4] = second compound 0.316 µM, first compound 0.1 µM
[5] = second compound 1 µM, first compound 0.0316 µM
[6] = second compound 1 µM, first compound 0.1 µM
[7] = second compound 3.16 µM, first compound 0.0316 µM
[8] = second compound 3.16 µM, first compound 0.1 µM
[9] = second compound 10 µM, first compound 0.1 µM
[10] = second compound 0.1 µM, first compound 0.316 µM
[11] = second compound 0.1 µM, first compound 1 µM
[12] = second compound 0.1 µM, first compound 3.16 µM
[13] = second compound 0.1 µM, first compound 10 µM
[14] = second compound 0.316 µM, first compound 0.316 µM
[15] = second compound 0.316 µM, first compound 1 µM
[16] = second compound 0.316 µM, first compound 3.16 µM
[17] = second compound 0.316 µM, first compound 10 µM
[18] = second compound 1 µM, first compound 0.316 µM
[19] = second compound 1 µM, first compound 1 µM
[20] = second compound 1 µM, first compound 3.16 µM
[21] = second compound 1 µM, first compound 10 µM
[22] = second compound 3.16 µM, first compound 0.316 µM
[23] = second compound 3.16 µM, first compound 1 µM
[24] = second compound 3.16 µM, first compound 3.16 µM
[25] = second compound 3.16 µM, first compound 10 µM
[26] = second compound 10 µM, first compound 0.0316 µM
[27] = second compound 10 µM, first compound 0.316 µM
[28] = second compound 10 µM, first compound 1 µM
[29] = second compound 10 µM, first compound 3.16 µM
[30] = second compound 10 µM, first compound 10 µM
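Also: viability read after seven days of drug exposure.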

| SMILES | IC50 (second compound 0.1 µM) [nM] | IC50 (second compound 0.316 µM) [nM] | IC50 (second compound 1 µM) [nM] | IC50 (second compound 3.16 µM) [nM] | IC50 (second compound 10 µM) [nM] | viability, T/C [1] [%] | viability, T/C [2] [%] | viability, T/C [3] [%] | viability, T/C [4] [%] | viability, T/C [5] [%] | viability, T/C [6] [%] | viability, T/C [7] [%] | viability, T/C [8] [%] | viability, T/C [9] [%] | viability, T/C [10] [%] | viability, T/C [11] [%] | viability, T/C [12] [%] | viability, T/C [13] [%] | viability, T/C [14] [%] | viability, T/C [15] [%] | other results |
| --- | --- | --- | --- | --- | --- | --- | --- | --- | --- | --- | --- | --- | --- | --- | --- | --- | --- | --- | --- | --- | --- |
| CC(C)n1nc(-c2ccc3oc(N)nc3c2)c2c(N)ncnc21 + C=CC(=O)N1CCN(c2nc(=O)n(-c3c(C)ccnc3C(C)C)c3nc(-c4c(O)cccc4F)c(F)cc23)C(C)C1 | 9.61 | 7.5 | 7.19 | 3.43 | 0.703 | 36.7 | 27.2 | 35.5 | 26.9 | 36.6 | 24 | 26.9 | 23.1 | 18.8 | – | – | – | – | – | – | viability, T/C (second compound 0.1 µM, first compound 0.000316 µM): 110%; viability, T/C (second compound 0.1 µM, first compound 0.001 µM): 97.8%; viability, T/C (second compound 0.1 µM, first compound 0.00316 µM): 63.6%; viability, T/C (second compound 0.1 µM, first compound 0.01 µM): 52.8%; viability, T/C (second compound 0.316 µM, first compound 0.000316 µM): 117%; viability, T/C (second compound 0.316 µM, first compound 0.001 µM): 98.1%; viability, T/C (second compound 0.316 µM, first compound 0.00316 µM): 65.5%; viability, T/C (second compound 0.316 µM, first compound 0.01 µM): 44.6%; viability, T/C (second compound 1 µM, first compound 0.000316 µM): 117%; viability, T/C (second compound 1 µM, first compound 0.001 µM): 102%; viability, T/C (second compound 1 µM, first compound 0.00316 µM): 64.3%; viability, T/C (second compound 1 µM, first compound 0.01 µM): 43.8%; viability, T/C (second compound 3.16 µM, first compound 0.000316 µM): 91.7%; viability, T/C (second compound 3.16 µM, first compound 0.001 µM): 79.7%; viability, T/C (second compound 3.16 µM, first compound 0.00316 µM): 51.9%; viability, T/C (second compound 3.16 µM, first compound 0.01 µM): 29.7%; viability, T/C (second compound 10 µM, first compound 0.000316 µM): 58.1%; viability, T/C (second compound 10 µM, first compound 0.001 µM): 46.9%; viability, T/C (second compound 10 µM, first compound 0.00316 µM): 32.5%; viability, T/C (second compound 10 µM, first compound 0.01 µM): 25.7% |
| CC1(C)CCC(CN2CCN(c3ccc(C(=O)NS(=O)(=O)c4ccc(NCC5CCOCC5)c([N+](=O)[O-])c4)c(Oc4cnc5[nH]ccc5c4)c3)CC2)=C(c2ccc(Cl)cc2)C1 + C=CC(=O)N1CCN(c2nc(=O)n(-c3c(C)ccnc3C(C)C)c3nc(-c4c(O)cccc4F)c(F)cc23)C(C)C1 | 5910 | 5020 | 3690 | 3460 | 1940 | 100 | 116 | 96 | 110 | 114 | 104 | 90.9 | 102 | 68.8 | 106 | 109 | 92.3 | 14.3 | 106 | 112 | viability, T/C [16]: 76.1%; viability, T/C [17]: 11.1%; viability, T/C [18]: 113%; viability, T/C [19]: 111%; viability, T/C [20]: 56%; viability, T/C [21]: 10.2%; viability, T/C [22]: 92.4%; viability, T/C [23]: 86.9%; viability, T/C [24]: 52.3%; viability, T/C [25]: 22.5%; viability, T/C [26]: 75.9%; viability, T/C [27]: 72.9%; viability, T/C [28]: 61.9%; viability, T/C [29]: 40.9%; viability, T/C [30]: 13.3% |
| COc1cc2nccc(Oc3ccc(NC(=O)C4(C(=O)Nc5ccc(F)cc5)CC4)cc3)c2cc1OC + C=CC(=O)N1CCN(c2nc(=O)n(-c3c(C)ccnc3C(C)C)c3nc(-c4c(O)cccc4F)c(F)cc23)C(C)C1 | 6550 | 5780 | 3980 | 2500 | 1240 | 114 | 122 | 107 | 111 | 109 | 119 | 83.7 | 109 | 64.1 | 113 | 124 | 78.4 | 33.5 | 117 | 108 | viability, T/C [16]: 66.8%; viability, T/C [17]: 34.7%; viability, T/C [18]: 114%; viability, T/C [19]: 112%; viability, T/C [20]: 54.2%; viability, T/C [21]: 32.9%; viability, T/C [22]: 94.4%; viability, T/C [23]: 75.4%; viability, T/C [24]: 44.2%; viability, T/C [25]: 20.9%; viability, T/C [26]: 55.2%; viability, T/C [27]: 58.7%; viability, T/C [28]: 53.9%; viability, T/C [29]: 32.6%; viability, T/C [30]: 10.4% |
